Measurements: paper PMC11055068, “Humoral Immune Response to SARS-CoV-2 Spike Protein Receptor-Binding Motif Linear Epitopes” (Vaccines, 2024)

Experiments:
[1] = Protein thermal shift assay; format: physicochemical
Method: Protein thermal shift assays were performed using a QuantStudio 3 PCR System (Applied Biosystems, Foster City, CA, USA). The experiments used a 0.2 mL MicroAmp® optical eight-strip manufactured by Applied Biosystems. Every step was executed on ice. In each measurement, duplicates or quadruplicates of the samples were analyzed. Each measurement included a negative control free of protein and a positive control obtained with Lysozyme (10 µg) and the peptide S8WT (5 µg). A carbonate–bicarbonate buffer (50 mM, pH 9.6) and a protein thermal shift dye (Applied Biosystems, Foster City, CA, USA) were used in a 4× dye concentration. The plate was sealed with MicroAmp™ Optical Adhesive Film (Applied Biosystems, Foster City, CA, USA) and incubated on ice for 15 min after all components were pipetted into the wells. An Applied Biosystems QuantStudio™ 3 Real-Time PCR System was used, utilizing a gradient rate of 0.05 °C/s and a melt curve filter setting of x2-m2 from 25 °C to 99 °C with continuous data collection. Analyses of the melting curves were conducted with the TSAR application in R version 4.2.1.

[2] = test system: IgG in serum of vaccinated individuals; assay: In-house peptide ELISA, IgG; format: binding, human; conditions: serum 1:25; for IgG seroreactivity (positive samples): reactivity index > 1.1
Method: A panel of 31 serum samples were obtained from individuals who received a single dose of the Oxford/AstraZeneca vaccine, and 15 serum samples were collected from individuals who received four doses. Serum from healthy donors, collected before the pandemic, was provided by HEMORIO, a centralized network of blood donor facilities in Rio de Janeiro, Brazil. Serum samples were supplied without identifying information to ensure patient privacy.
An in-house ELISA was conducted using Immunolon 4 HB plates (Immunochemistry Technologies, Bloomington, MN, USA). The coating process involved overnight incubation at 4 °C, wherein each well received 500 ng of peptides in a coating buffer (50 mM carbonate–bicarbonate buffer, pH 9.6). After washing with PBS-T (phosphate-buffered saline plus 0.05% Tween 20), the plates were incubated for 1 h at 37 °C with 1% BSA (200 µL) in PBS-T to block free binding sites. Following the dilution of patient serum in PBS-T with 1% BSA (1:25), 100 µL of the diluted serum was applied to immunosorbent plates, which were then incubated at 37 °C for 1 h. Following a series of PBS-T washes, plates were treated with 100 µL of mouse anti-human IgG3 (1:1000) followed by association with antimouse peroxidase (1:15.000) or goat anti-human immunoglobulin classes IgG (1:10.000), IgM (1:10.000), and IgA (1:5000) or subclasses IgG1 (1:1000) and IgG2 (1:1000) associated with the HRP molecule, respectively (Sigma-Aldrich, St Louis, MO, USA). Between each step, the plates were incubated at 37 °C for 1 h. Following the addition of 3,3′,5,5′-tetramethylbenzidine (1-Step™ Ultra TMB-ELISA, Science Biotech Ltd., Lages, SC, Brazil) for 15 min, 0.5 M sulfuric acid was utilized to terminate the reaction. The plate was read 30 min after the Stop Solution was added. The values of empty wells that contained only peptides were deducted from the optical density of the sample.
Prism software (GraphPad version 6, San Diego, CA, USA) was utilized to analyze the data. Statistical differences were identified using the Kruskal–Wallis test and Dunn’s multiple comparisons tests. Differences were considered significant when the p-value was less than 0.05. The reactivity index (RI) was calculated by dividing the absorbance of a given protein by the threshold established by a receiver operation curve (ROC) analysis. A result greater than 1.10 was considered positive, while a result less than 0.90 was considered negative; these are represented by dot lines. Samples with a relative index (RI) value of 1.0 ± 10% were classified as gray-zone samples and deemed inconclusive.

antibodies in sera = conditions: ref A novel precision-serology assay for SARS-CoV-2 infection based on linear B-cell epitopes of Spike protein; cited from earlier work
[3] = test system: Purified antibodies specific to the RBM (anti-RBM antibodies from vaccinated serum); format: binding, human
[4] = first dose Oxford/AstraZeneca, n = 30, 500 ng peptide per well
[5] = heterologous booster doses, n = 7

Lysozyme
Tm ([1]; Lysozyme 10 µg control, carbonate–bicarbonate buffer 50 mM, pH 9.6, 25 to 99 °C, 0.05 °C/s, protein thermal shift dye): 72.7 °C | Tm ([1]; replicate 1 (Lysozyme_1), 10 µg, carbonate–bicarbonate buffer pH 9.6): 71.7 °C | Tm ([1]; replicate 2 (Lysozyme_2), 10 µg, carbonate–bicarbonate buffer pH 9.6): 73.7 °C

YFPLQSYGFQPTNGV [S3WT]
IgG positive samples (reactivity index > 1.1) [2, 4]: only two positive samples | IgG positive samples (reactivity index > 1.1) [2, 5]: one for heterologous booster doses

NGVEGFNCYFP
serological reactivity vs other S1 and S2 regions (antibodies in sera): less serologically reactive than other S1 and S2 regions

GSTPCNGVEGFNCYF [S2WT]
IgG positive samples (reactivity index > 1.1) [2, 4]: 4/30 | IgG seroreactivity (positive samples) ([2]; first dose Oxford/AstraZeneca, n = 30): 13.3% | IgG positive samples (reactivity index > 1.1) [2, 5]: 1/7 | IgG seroreactivity (positive samples) [2, 5]: 14.3% | binding affinity of RBM antibodies (in words) [3]: stronger | Kd ([3]; read-out: Kd (dissociation constant)): 35 nM
